Data from US20150368297A1, “Novel Peptide Compound for Inhibiting Restenosis and Promoting Re-Endothelialization and Method for Preparing the Same” (Chonnam National University Hospital, priority 2014, published 2015).

Tested on: vascular smooth muscle cell (SMC)
Assay: Effect on proliferation of vascular smooth muscle cell (SMC), XTT assay
Type: cell-based
Details: 1 uM compound; measured at 1, 4 and 7 days; versus non-treated control; FIG. 1
Experimental: As cells used in a cell culture, the vascular smooth muscle cell (SMC) which is a smooth muscle cell, and the human umbilical vein endothelial cell (HUVEC) which is the cell for promoting vascular re-endothelialization were purchased from Korea Cell Line Bank, respectively. The cell culture was performed by culturing the vascular smooth muscle cell (SMC) and the human umbilical vein endothelial cell (HUVEC) in Dulbecoco's modified eagle medium (DMEM) with 10% fetal bovine serum (FBS) under conditions of 37° C. and 5% CO2. […]
(§1) 5×10^4 of SMC cells cultured according to Example 2 were cultured in the 24-well cell culture plate and then treated with 1 uM of the peptide compound prepared by Example 2 (hereinafter, referred to as ‘EVR-P’). […] After the reaction, 200 ul of the culture medium was transferred from each well to a 96 well cell culture dish, and degree of color change was measured from absorbance at a 450 nm wavelength by a spectroscopy.
as §1, with “the known Everolimus (EVR)(LC Laboratories).” for “the peptide compound prepared by Example 2 (hereinafter, referred to as ‘EVR-P’).”, “to the” for “to a”

## CO[C@H]1C[C@@H]2CC[C@@H](C)[C@@](O)(O2)C(=O)C(=O)N2CCCC[C@H]2C(=O)O[C@H]([C@H](C)C[C@@H]2CC[C@@H](OCCO)[C@H](OC)C2)CC(=O)[C@H](C)/C=C(\C)[C@@H](O)[C@@H](OC)C(=O)[C@H](C)C[C@H](C)/C=C/C=C/C=C/1C [EVR, Everolimus]
  SMC cell proliferation (XTT, absorbance at 450 nm): cell proliferation was inhibited
